Results from patent US9227949B2, “Heteroarylcarboxylic acid ester derivative” (AJINOMOTO CO., INC., priority 2012, dated 2016).

Experiments:
[1] = tested on: Zucker Fatty rats; assay: Evaluation of hypoglycemic action (blood glucose levels after oral gavage); format: in vivo; settings: gavage 3 mg/kg, HCl salt form, 2 or 4 hours after dosing, free access to feed
Procedure: Zucker Fatty rats (male, 11-19 week-old, Charles River Japan, Inc.) known to spontaneously develop hyperglycemia were randomly assigned to the groups (6 per group). The animals were individually housed in a polycarbonate cage and allowed to drink water freely from a watering bottle. The animals in the compound groups were gavaged with compound No. 10, 87, 19, or 69 at the dose of 3 mg/kg. These compounds were used as HCl salt form thereof, converted by the method according to Example 3, step 6 from TFA salt form thereof upon the necessity. The animals in the control group were only treated with the vehicle (0.5% methylcellulose). Animals were allowed free access to the feed (CRF-1, Oriental Yeast Co., Ltd.) during the experiment. An aspirate of the blood (6 μL) was collected from the tail vein on the time point of immediately before dosing (time 0) as well as 2, 4, and 8 hours after dosing. The blood glucose levels were determined with ACCU-CHEK Aviva (Roche Diagnostics K.K.).

[2] = target: recombinant human enteropeptidase (Homo sapiens (Human), UniProt P98073); assay: Measurement of enteropeptidase inhibitory activity; format: biochemical; settings: substrate Gly-Asp-Asp-Asp-Asp-Lys-β-Naphtylamide, Tris-HCl pH 8.0, Dixon plot
Procedure: Using a 96 well plate (#3915, Costar), a test compound (25 μL), 400 mM Tris-HCl buffer (pH 8.0, 25 μL) and 0.5 mg/mL, fluorescence enzyme substrate (Gly-Asp-Asp-Asp-Asp-Lys-β-Naphtylamide, 25 μL) were mixed, and recombinant human enteropeptidase (R&D Systems, Inc., 25 μL) was added. Using a fluorescence plate reader fmax (Molecular Devices, Inc.), the reaction rate was measured from the time-course changes at excitation wavelength 320 nm and fluorescence wavelength 405 nm. The Ki value was calculated from the concentration of the test compound, reciprocal of reaction rate, and Km value of the enzyme substrate, and by using Dixon plot.

[3] = target: human trypsin (Homo sapiens, UniProt P07477); assay: Measurement of trypsin inhibitory activity; format: biochemical; settings: substrate Boc-Phe-Ser-Arg-AMC, Tris-HCl pH 8.0, Dixon plot
Procedure: (§1) Using a 96 well plate (#3915, Costar), a test compound (25 μL) was mixed with 20 μM fluorescence enzyme substrate (Boc-Phe-Ser-Arg-AMC, 50 μL) mixed with 200 mM Tris-HCl buffer (pH 8.0), and human trypsin (Sigma, 25 μL) was added. Using a fluorescence plate reader fmax (Molecular Devices, Inc.), the reaction rate was measured from the time-course changes at excitation wavelength 355 nm and fluorescence wavelength 460 nm. The Ki value was calculated from the concentration of the test compound, reciprocal of reaction rate, and Km value of the enzyme substrate, and by using Dixon plot.

[4] = target: human trypsin; assay: Measurement of trypsin inhibitory activity; format: biochemical; settings: substrate Boc-Phe-Ser-Arg-AMC, Tris-HCl pH 8.0, Dixon plot
Procedure: as §1

recombinant human enteropeptidase, sequence (P98073 whole entry): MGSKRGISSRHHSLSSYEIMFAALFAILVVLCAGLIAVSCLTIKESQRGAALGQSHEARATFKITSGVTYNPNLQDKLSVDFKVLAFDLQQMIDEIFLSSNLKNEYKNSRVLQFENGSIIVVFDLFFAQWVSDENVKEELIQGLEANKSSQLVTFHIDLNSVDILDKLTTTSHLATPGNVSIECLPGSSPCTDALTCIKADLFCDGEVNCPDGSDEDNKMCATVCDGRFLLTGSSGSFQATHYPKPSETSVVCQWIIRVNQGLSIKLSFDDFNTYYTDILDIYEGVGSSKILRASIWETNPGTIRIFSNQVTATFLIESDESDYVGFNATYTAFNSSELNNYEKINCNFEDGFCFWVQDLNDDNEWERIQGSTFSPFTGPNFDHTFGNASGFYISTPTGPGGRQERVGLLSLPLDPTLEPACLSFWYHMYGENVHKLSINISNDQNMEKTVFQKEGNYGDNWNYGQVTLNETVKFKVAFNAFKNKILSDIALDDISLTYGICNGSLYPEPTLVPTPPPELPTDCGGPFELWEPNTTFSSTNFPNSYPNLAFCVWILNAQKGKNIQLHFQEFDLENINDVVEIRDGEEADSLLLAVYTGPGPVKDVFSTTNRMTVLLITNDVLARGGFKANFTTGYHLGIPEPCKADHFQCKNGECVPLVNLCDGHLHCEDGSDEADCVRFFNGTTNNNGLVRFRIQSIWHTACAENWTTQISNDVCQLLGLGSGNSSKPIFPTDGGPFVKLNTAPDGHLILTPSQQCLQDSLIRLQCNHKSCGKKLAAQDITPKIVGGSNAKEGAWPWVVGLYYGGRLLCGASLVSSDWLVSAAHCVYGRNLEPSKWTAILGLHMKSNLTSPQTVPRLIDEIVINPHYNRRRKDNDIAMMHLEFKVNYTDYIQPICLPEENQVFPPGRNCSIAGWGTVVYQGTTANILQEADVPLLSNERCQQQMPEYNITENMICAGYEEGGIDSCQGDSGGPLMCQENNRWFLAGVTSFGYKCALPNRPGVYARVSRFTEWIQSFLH

| SMILES | blood glucose levels compared with vehicle group [1] | Ki [2] [nM] | Ki [3] [nM] | Ki [4] [nM] |
| --- | --- | --- | --- | --- |
| CCCN(CC(=O)O)C(=O)C(C)(C)Cc1ccc(C(=O)Oc2ccc(C(=N)N)cc2F)s1.Cl [Compound 10, N-{3-[5-(4-amidino-2-fluorophenoxycarbonyl)thiophen-2-yl]-2,2-dimethylpropionyl}-N-propylglycine hydrochloride] | significantly decreased |  |  |  |
| CCC(CC)(Cc1ccc(C(=O)Oc2ccc(C(=N)N)cc2F)s1)C(=O)N[C@@H](CC(=O)O)C(=O)O.Cl [Compound 19] | significantly decreased |  |  |  |
| CC(C)(Cc1ccc(C(=O)Oc2ccc(C(=N)N)cc2F)s1)C(=O)N[C@@H](C(=O)O)c1ccc(O)cc1.O=C(O)C(F)(F)F [Compound 69] | significantly decreased |  |  |  |
| CC(C)(Cc1ccc(C(=O)Oc2ccc(C(=N)N)cc2F)s1)C(=O)Nc1cc(O)cc(C(=O)O)c1 [Compound 74] |  | 0.58 | 0.18 |  |
| CCC(CC)(Cc1ccc(C(=O)Oc2ccc(C(=N)N)cc2F)s1)C(=O)Nc1ccc(O)c(C(=O)O)c1 [Compound 82] |  | 3.52 | 5.32 |  |
| CCC(CC)(Cc1ccc(C(=O)Oc2ccc(C(=N)N)cc2F)s1)C(=O)NCC(=O)O [Compound 83] |  | 0.72 |  | 1.42 |
| CCC(CC)(Cc1ccc(C(=O)Oc2ccc(C(=N)N)cc2F)s1)C(=O)N[C@@H](CCC(=O)O)c1nnn[nH]1 [Compound 84] |  | 0.43 |  | 3.27 |
| CC(C)(Cc1ccc(C(=O)Oc2ccc(C(=N)N)cc2F)s1)C(=O)N[C@H]1CCC[C@@H](C(=O)O)C1 [Compound 85] |  | 0.81 | 0.69 |  |
| CCC(CC)(Cc1ccc(C(=O)Oc2ccc(C(=N)N)cc2F)s1)C(=O)N[C@@H](Cc1nn[nH]n1)C(=O)O [Compound 86] |  | 0.24 | 3.4 |  |
| CC(C)(Cc1ccc(C(=O)Oc2ccc(C(=N)N)cc2F)s1)C(=O)O.O=C(O)C(F)(F)F [Compound 87] | significantly decreased | 0.39 | 1.3 |  |
| CCC(CC)(Cc1ccc(C(=O)Oc2ccc(C(=N)N)cc2F)s1)C(=O)N1CC(C(=O)O)C1 [Compound 88] |  | 1 | 2.87 |  |
| CCC(CC)(Cc1ccc(C(=O)Oc2ccc(C(=N)N)cc2F)s1)C(=O)Nc1cccc(S(=O)(=O)O)c1 [Compound 89] |  | 0.84 |  | 1.17 |
| CCC(CC)(Cc1ccc(C(=O)Oc2ccc(C(=N)N)cc2F)s1)C(=O)Nc1ccc(C(=O)O)c(C(=O)O)c1 [Compound 90] |  | 0.55 | 1.7 |  |
| CC(C)(Cc1ccc(C(=O)Oc2ccc(C(=N)N)cc2F)s1)C(=O)N1CC[C@H](C(=O)O)C1 [Compound 91] |  | 0.9 | 1.33 |  |
| CC(C)(Cc1ccc(C(=O)Oc2ccc(C(=N)N)cc2F)s1)C(=O)N[C@H](C(=O)O)c1ccc(O)cc1 [Compound 92] |  | 0.67 |  | 0.96 |
| CC(C)(Cc1ccc(C(=O)Oc2ccc(C(=N)N)cc2F)s1)C(=O)N1C[C@H](O)C[C@H]1C(=O)O [Compound 93] |  | 0.3 |  | 0.9 |
| CC(C)(Cc1ccc(C(=O)Oc2ccc(C(=N)N)cc2F)s1)C(=O)N[C@H]1CC=CC[C@H]1C(=O)O [Compound 94] |  | 1.3 |  | 1.98 |
